For experiment [1], the system named is Staphylococcus aureus (MRSA3). The source says: (§1) Antibacterial activity of the antibiotic-substance-containing fraction at each fractionation stage from a culture produced from RH2180-5 and that of the antibiotic substance obtained therefrom by separation and purification thereof can be evaluated by MIC. […] For example, it is done with a broth microdilution method based on CLSI (formerly NCCLS: National Committee for Clinical Laboratory Standards).
(§2) Antibacterial spectrum of the RH2180-5 Peak 5 Substance to various bacteria including MRSA and VRE was studied. In addition, influence of chemical resistance was also studied. For study of the latter, Staphylococcus aureus and Enterococcus faecalis were selected, wherein measurement of MIC value of each peak substance was made by a broth microdilution method based on CLSI (formerly NCCLS: National Committee for Clinical Laboratory Standards) as to Staphylococcus aureus not showing resistance to a chemical (hereinafter abbreviated as “MSSA 1”) and two kinds of MRSA showing resistance to many chemicals including methicillin (MRSA 3 and MRSA 4; see Table 3 for resistive chemicals) for Staphylococcus aureus; and as to Enterococcus faecalis not showing resistance to a chemical (hereinafter abbreviated as “EF 1”) and showing resistance to vancomycin (hereinafter abbreviated as “VRE”) for Enterococcus faecalis.
(§3) Test microorganisms of Staphylococcus aureus and Enterococcus faecalis, the same as Test Example 1, were selected; and measurement of MIC value of each peak substance was made by a broth microdilution method based on CLSI (formerly NCCLS: National Committee for Clinical Laboratory Standards) as to MSSA 1 and EF 1, and MRSA 3, MRSA 4, and VRE, the same as Test Example 1.
(§4) Antibacterial spectrum of the foregoing RH2180-5 Peak 5 Substance to various microorganisms including MRSA and VRE was studied. Each MIC value for the case added with 10% blood serum and for the case not added with the same was measured by a broth microdilution method based on CLSI (formerly NCCLS: National Committee for Clinical Laboratory Standards).

Experiment [2] deals with Enterococcus faecalis (VRE).
Source text: as §1, §2, §3, §4

For experiment [3], the system named is Enterococcus faecalis (EF1).
Source text: as §1, §2, §3, §4

For experiment [4], the system named is Staphylococcus aureus (MSSA1). The settings on record: MSSA1.
Source text: as §1, §2, §3, §4

Experiment [5] has as its system Staphylococcus aureus (MRSA4).
Source text: as §1, §2, §3, §4

Experiment [6] relates to Staphylococcus aureus. The experiment can be described thus: silkworm Staphylococcus aureus infection model (therapeutic effect). It is filed as in vivo, silkworm (larva of Bombyx mori). The following applies: purification stages, Table 2. The text has this: In the present invention too, a first screening to narrow down effective strains from several tens of thousands of extraordinary large numbers of strains may be done by any method as far as the antibacterial activity can be evaluated with the said method; and thus, for example, by referring to MIC, test bodies showing the antibacterial activity to Staphylococcus aureus in culture supernatant of each strain may be picked up. This is because strains not showing the antibacterial activity at all are not in the scope of examination. Any method capable of evaluating the antibacterial activity may be used; but a method with which a strain recognized to show, with referring to MIC, the antibacterial activity to Staphylococcus aureus in culture supernatant of various test strains is picked up is preferable. […]
Strains recognized to show the therapeutic effect in the silkworm Staphylococcus aureus infection model are further subjected to various separation and purification treatments wherein the therapeutic effect is evaluated in each operation by using the silkworm Staphylococcus aureus infection model. […]

The test system of experiment [7] is Staphylococcus aureus. It is filed as cell-based. The procedure:
A soil taken from various places was suspended in a physiological saline solution, and then the supernatant thereof was applied on a GA medium and a HV medium; and after incubation at 30° C., grown bacteria was separated and then cultured in an YME medium, a SGM medium, or a CDY medium at 30° C. for 5 days. Equal amount of acetone was added thereinto; and after they were suspended and centrifugally separated, the resulting supernatant was evaporated. The residue thus resulted was diluted with a physiological saline solution, and then the antibacterial activity thereof to Staphylococcus aureus was evaluated by MIC with a broth microdilution method. As a result, antibacterial activity was found in culture supernatant of 3487 strains out of 14346 strains.

The subject of experiment [8] is Smith strain of Staphylococcus aureus. The experiment can be described thus: mouse Staphylococcus aureus infection model (therapeutic effect). It is filed as in vivo, mouse (ICR female). The following applies: Staphylococcus aureus, ip. The procedure:
Smith strain of Staphylococcus aureus was suspended in 7% mucin+0.2 mM ferric ammonium citrate, and 6.2×10^6 (20×LD50) thereof was administered into the peritoneal cavity of 5 mice per group (ICR female of four weeks of age). Each drug was injected hypodermically 2 hours after administration of the bacterium by the method shown below.
Similarly, ED50 of vancomycin to the mouse model used this time was studied. […] Here, ED50 values were obtained by the probit method.

Experiment [9] relates to Staphylococcus aureus. The experiment can be described thus: survived cell numbers (CFU) of Staphylococcus aureus after drug addition. It is filed as cell-based. The procedure: To CA-Mueller Hinton Broth medium were taken 1.8×10^8 Staphylococcus aureus, and then the foregoing RH2180-5 Peak 5 Substance (25 μg/mL), vancomycin (VM, 5 μg/mL), and gentamicin (GM, 2.5 μg/mL) were added thereinto; and then, survived cell numbers after 15 minutes, 30 minutes, 60 minutes, and 120 minutes were obtained as CFU (colony forming unit/mL).

Values after ≈ are worked out from the molar mass of the structure shown. Positions of bridges follow the written chain, without caps; N, C: chain ends. Non-standard residues stand in square brackets, D forms with d. Residues, ends and D or L forms follow the SMILES beside them. *: point of attachment. Hexanoyl(3-OH,5-Me) = CC(C)CC(O)CC(=O)*; dNMeF = CN[C@H](Cc1ccccc1)C(=O)O

Broadly, the MIC is the least concentration at which growth counts as inhibited. On to `CC[C@H](C)[C@@H]1NC(=O)[C@@H](Cc2c[nH]c3ccccc23)NC(=O)[C@@H](CCC(N)=O)NC(=O)[C@H](CCC(=O)O)NC(=O)[C@@H](CCCNC(=N)N)NC(=O)[C@H](CC(C)C)NC(=O)[C@@H](Cc2ccccc2)NC(=O)CNC(=O)[C@H](CO)NC(=O)[C@@H](CCCNC(=N)N)NC(=O)[C@@H](NC(=O)CC(O)CCCC(C)C)[C@@H](C)OC(=O)[C@H]([C@@H](C)O)NC1=O` (single isomer, unassigned) [Peak P3], for which the minimal inhibitory concentration (MIC) is 25 µg/mL (≈ 15.3 µM) in [1]; 50 µg/mL (≈ 30.6 µM) in experiment [2]; 50 µg/mL (≈ 30.6 µM) in experiment [3]; 25 µg/mL (≈ 15.3 µM) in experiment [4]; 25 µg/mL (≈ 15.3 µM) in experiment [5].

As for `CC[C@H](C)[C@@H]1NC(=O)[C@@H](Cc2c[nH]c3ccccc23)NC(=O)[C@@H](CCC(N)=O)NC(=O)[C@H](CCC(=O)O)NC(=O)[C@@H](CCCNC(=N)N)NC(=O)[C@H](CC(C)C)NC(=O)[C@@H](Cc2ccccc2)NC(=O)CNC(=O)[C@H](CO)NC(=O)[C@@H](CCCNC(=N)N)NC(=O)[C@@H](NC(=O)CC(O)CCCC(C)C)[C@@H](C)OC(=O)[C@H]([C@@H](C)O)NC1=O` (single isomer, unassigned) [Peak P4], the MIC amounted to 25.0 µg/mL (≈ 15.3 µM) in experiment [1]; 25 µg/mL (≈ 15.3 µM) in experiment [2]; 50 µg/mL (≈ 30.6 µM) in [3]; 12.5 µg/mL (≈ 7.66 µM) in [4]; 12.5 µg/mL (≈ 7.66 µM) in experiment [5].

Turning to `CC[C@H](C)[C@@H]1NC(=O)[C@@H](Cc2c[nH]c3ccccc23)NC(=O)[C@@H](CCC(N)=O)NC(=O)[C@H](CCC(=O)O)NC(=O)[C@@H](CCCNC(=N)N)NC(=O)[C@H](CC(C)C)NC(=O)[C@@H](Cc2ccccc2)N(C)C(=O)CNC(=O)[C@H](CO)NC(=O)[C@@H](CCCNC(=N)N)NC(=O)[C@@H](NC(=O)CC(O)CCC(C)C)[C@@H](C)OC(=O)[C@H]([C@@H](C)O)NC1=O` (single isomer, unassigned) [Peak P7], the MIC is 12.5 µg/mL (≈ 7.66 µM) in experiment [1]; 25 µg/mL (≈ 15.3 µM) in experiment [2]; 50 µg/mL (≈ 30.6 µM) in experiment [3]; 12.5 µg/mL (≈ 7.66 µM) in experiment [4]; 12.5 µg/mL (≈ 7.66 µM) in [5].

With `CC[C@H](C)[C@@H]1NC(=O)[C@@H](Cc2c[nH]c3ccccc23)NC(=O)[C@@H](CCC(N)=O)NC(=O)[C@H](CCC(=O)O)NC(=O)[C@@H](CCCNC(=N)N)NC(=O)[C@H](CC(C)C)NC(=O)[C@@H](Cc2ccccc2)N(C)C(=O)CNC(=O)[C@H](CO)NC(=O)[C@@H](CCCNC(=N)N)NC(=O)[C@@H](NC(=O)CC(O)CCCC(C)C)[C@@H](C)OC(=O)[C@H]([C@@H](C)O)NC1=O` (single isomer, unassigned) [Peak P8], the minimal inhibitory concentration (MIC) came to 12.5 µg/mL (≈ 7.59 µM) in [1]; 25 µg/mL (≈ 15.2 µM) in experiment [2]; 50 µg/mL (≈ 30.4 µM) in experiment [3]; 12.5 µg/mL (≈ 7.59 µM) in experiment [4]; 12.5 µg/mL (≈ 7.59 µM) in experiment [5].

As for `CC[C@H](C)[C@@H]1NC(=O)[C@@H](Cc2c[nH]c3ccccc23)NC(=O)[C@@H](CCC(N)=O)NC(=O)[C@H](CCC(=O)O)NC(=O)[C@@H](CCCNC(=N)N)NC(=O)[C@H](CC(C)C)NC(=O)[C@@H](Cc2ccccc2)N(C)C(=O)CNC(=O)[C@H](CO)NC(=O)[C@@H](CCCNC(=N)N)NC(=O)[C@@H](NC(=O)CC(O)CCCC(C)C)[C@@H](C)OC(=O)[C@H]([C@@H](C)O)NC1=O` (single isomer, unassigned) [Peak P9], the figures for the minimal inhibitory concentration (MIC) (in experiment [2]; in [3]; against Staphylococcus aureus [7]) were 12.5 µg/mL (≈ 7.59 µM), 12.5 µg/mL (≈ 7.59 µM) and 5 µg/mL (≈ 3.04 µM), respectively. In addition, the ED50 in the experiment with Staphylococcus aureus [6] is 0.3 μg/g-larva.

For the compound `CC(C)CC(O)CC(=O)N[C@@H]1C(=O)N[C@H](CCCNC(=N)N)C(=O)N[C@@H](CO)C(=O)NCC(=O)N(C)[C@H](Cc2ccccc2)C(=O)N[C@@H](CC(C)C)C(=O)N[C@H](CCCNC(=N)N)C(=O)N[C@@H](CCC(=O)O)C(=O)N[C@H](CCC(N)=O)C(=O)N[C@H](Cc2c[nH]c3ccccc23)C(=O)N[C@@H](C(C)C)C(=O)N[C@@H]([C@@H](C)O)C(=O)O[C@@H]1C` (stereo partly drawn) [Peak P2] ({Hexanoyl(3-OH,5-Me)}-T[dR]SG[dNMeF]L[dR]E[dQ][dW]VT; ester 1-C), the minimum inhibitory concentration (MIC) worked out at 12.5 µg/mL (≈ 7.79 µM) in experiment [1]; 50 µg/mL (≈ 31.2 µM) in experiment [2]; 50 µg/mL (≈ 31.2 µM) in experiment [3]; 12.5 µg/mL (≈ 7.79 µM) in experiment [4]; 6.3 µg/mL (≈ 3.93 µM) in experiment [5].

`CN[C@H](CC(C)C)C(=O)N[C@H]1C(=O)N[C@@H](CC(N)=O)C(=O)N[C@H]2C(=O)N[C@H]3C(=O)N[C@H](C(=O)N[C@H](C(=O)O)c4cc(O)cc(O)c4-c4cc3ccc4O)[C@H](O)c3ccc(c(Cl)c3)Oc3cc2cc(c3O[C@@H]2O[C@H](CO)[C@@H](O)[C@H](O)[C@H]2O[C@H]2C[C@](C)(N)[C@H](O)[C@H](C)O2)Oc2ccc(cc2Cl)[C@H]1O` [Vancomycin] returned an ED50 in experiment [8] of 1.6 mg/kg. Further, the “CFU/ml of S. aureus” value in the experiment on Staphylococcus aureus [9] (5 μg/ml, 15 minutes) was 8.5 × 10^7 CFU/ml; with Staphylococcus aureus [9] (5 μg/ml, 30 minutes) it was 4.9 × 10^7 CFU/ml; in the experiment on Staphylococcus aureus [9] (5 μg/ml, 60 minutes), 6.8 × 10^7 CFU/ml; with Staphylococcus aureus [9] (5 μg/ml, 120 minutes) it was 3.4 × 10^7 CFU/ml.

Turning to Gentamicin [GM], the “CFU/ml of S. aureus” value is 2.6 × 10^7 CFU/ml in the experiment on Staphylococcus aureus [9] (2.5 μg/ml, 15 minutes); 7.6 × 10^5 CFU/ml with Staphylococcus aureus [9] (2.5 μg/ml, 30 minutes); 1.6 × 10^5 CFU/ml with Staphylococcus aureus [9] (2.5 μg/ml, 60 minutes); 4.0 × 10^5 CFU/ml in the experiment with Staphylococcus aureus [9] (2.5 μg/ml, 120 minutes).

These data come from US8754040B2, “Cyclic peptide compound, method for producing same, anti-infective agent, antibiotic-containing fraction, antibiotic, method for producing antibiotic, antibiotic-producing microorganism, and antibiotic produced by same” (priority 2010, dated 2014).
